According to publication PMC12543283, “TastepepAI: An artificial intelligence platform for taste peptide de novo design” (PLOS Computational Biology, 2025):
Read-outs that look alike come from different tables or passages of the source. Ends that are not written are not given here.

Tests used:
[1] = tested on: human embryonic kidney cells (HEK293T)
[2] = tested on: human pancreatic ductal epithelial cells (HPNE)
[3] = tested on: human bronchial epithelial cells (BEAS-2B)
[4] = tested on: human umbilical vein endothelial cells (HUVEC)
Protocol: (§1) The cytotoxicity of 73 synthetic peptides was evaluated using four human cell lines: human pancreatic ductal epithelial cells (HPNE), human embryonic kidney cells (HEK293T), human umbilical vein endothelial cells (HUVEC), and human bronchial epithelial cells (BEAS-2B). When cell density reached 70% confluence, the complete culture medium was replaced with serum-free maintenance medium, and peptides were added at a final concentration of 100 μM for 36 h. Control groups received only serum-free maintenance medium without peptides. Cell proliferation was assessed using the CCK-8 assay kit (Solarbio, CA1210) according to the manufacturer’s instructions.

[5] = Electronic tongue analysis (Taste-Sensing System SA 402B); set-up: unit not given here; conditions: reference solution 30 mM KCl + 0.3 mM tartaric acid as baseline, first measurement excluded; for Umami: sensor AAE; for Umami / Bitter / Sweet: detection threshold 0, room temperature; for Umami / Bitter / Sour / Salty: four replicates; for Sour: detection threshold -13, room temperature; for Salty: detection threshold -6, room temperature; for Sweet: measured five times
Method in brief: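 Samples were tested at 0.1 and 1.0 mg/mL on an SA 402B e-tongue fitted with sourness, saltiness, bitterness, sweetness and umami sensors, with 30 mM KCl/0.3 mM tartaric acid as reference and baseline. Thresholds were −13 for sour, −6 for salty and 0 for the rest. Runs at room temperature: four replicates, five for sweetness, first reading discarded.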

[6] = tested on: red blood cells from 6-week-old BALB/c mice (mRBCs); assay: Hemolysis assay; type: cell-based, mouse; conditions: mean of Data1-3; 100 μM peptide, 1.5 × 10^8 cells/mL mRBCs, 37°C, 60 min, absorbance 490 nm; PBS 0% and 1% Triton X-100 100% controls
Protocol: The hemolytic activity of synthetic peptides was evaluated using red blood cells from 6-week-old BALB/c mice (mRBCs). Freshly isolated mRBCs were washed three times with PBS buffer (8000 rpm, 2 min per wash) to prepare the mRBC suspension. Equal volumes (70 μL) of 200 μM peptide solutions and mRBC suspension were mixed to achieve final concentrations of 100 μM peptide and 1.5 × 10^8 cells/mL mRBCs in the reaction system. After incubation with shaking at 37°C for 60 min, samples were centrifuged at 10000 rpm for 5 min, and hemoglobin release was assessed by measuring the absorbance of the supernatant at 490 nm. PBS and 1% Triton X-100 treatments served as 0% and 100% hemolysis controls, respectively. A complete dataset of hemolytic activity measurements is documented in S4 Data.

[7] = tested on: human pancreatic ductal epithelial cells (HPNE); assay: Cell viability assessment (CCK-8), HPNE; conditions: CCK-8, mean of Data1-3 (n = 3)
[8] = tested on: human umbilical vein endothelial cells (HUVEC); assay: Cell viability assessment (CCK-8), HUVEC; conditions: CCK-8, mean of Data1-3 (n = 3)
Protocol: as §1

[9] = tested on: human bronchial epithelial cells (BEAS-2B); assay: Cell viability assessment (CCK-8), BEAS-2B; conditions: BEAS-2B cells, CCK-8, mean of Data1-3 (n = 3)
[10] = tested on: human embryonic kidney cells (HEK293T); assay: Cell viability assessment (CCK-8), HEK293T; conditions: CCK-8, mean of Data1-3 (n = 3)
[11] = known from earlier studies; cited from earlier work
Description: To address these experimental challenges, various computational and artificial intelligence-based approaches for taste peptide identification have emerged. Most reported methods focus on predicting single taste properties, such as BERT4Bitter and iBitter-SCM [42] for bitter peptide identification, while iUmami-SCM [43], Umami-MRNN [[44], iUmami-DRLF [45], and Umami-gcForest are dedicated to umami peptide prediction. Additionally, a few models like Umami_YYDS [35] have been reported to perform binary classification for umami and bitter tastes. However, current methodologie ...

## YGRGV [TaPep12]
[1]
  Average cell viability, HEK293T: 102.93
  Cell viability, HEK293T, Data1: 99.46
  Cell viability, HEK293T, Data2: 109.02
  Cell viability, HEK293T, Data3: 100.32
[2]
  Average cell viability, HPNE: 102.90
  Cell viability, HPNE, Data1: 110.82
  Cell viability, HPNE, Data2: 91.75
  Cell viability, HPNE, Data3: 106.12
[3]
  Average cell viability, BEAS-2B: 99.57
  Cell viability, BEAS-2B, Data1: 102.99
  Cell viability, BEAS-2B, Data2: 93.52
  Cell viability, BEAS-2B, Data3: 102.19
[4]
  Average cell viability, HUVEC: 94.89
  Cell viability, HUVEC, Data1: 90.77
  Cell viability, HUVEC, Data2: 98.75
  Cell viability, HUVEC, Data3: 95.16
[5]; peptide 0.1 mg/mL
  Umami: 3.01
[5]; peptide 1 mg/mL
  Umami: -2.86
[5]; sensor C00, peptide 0.1 mg/mL
  Bitter: 8.03
[5]; sensor C00, peptide 1 mg/mL
  Bitter: 0.75
[5]; sensor CA0, peptide 0.1 mg/mL
  Sour: -6.74
[5]; sensor CA0, peptide 1 mg/mL
  Sour: 6.59
[5]; sensor CT0, peptide 0.1 mg/mL
  Salty: -17.83
[5]; sensor CT0, peptide 1 mg/mL
  Salty: 7.54
[5]; sensor GL1, peptide 0.1 mg/mL
  Sweet: 7.49
[5]; sensor GL1, peptide 1 mg/mL
  Sweet: -7.92
[6]
  Average hemolysis: 0.43%

## YKYHES [TaPep13]
[7]
  Average cell viability, HPNE: 99.43
[8]
  Average cell viability, HUVEC: 104.44
[5]; peptide 0.1 mg/mL
  Umami: 1.81
[5]; peptide 1 mg/mL
  Umami: -4.92
[5]; sensor C00, peptide 0.1 mg/mL
  Bitter: 7.46
[5]; sensor C00, peptide 1 mg/mL
  Bitter: -0.78
[5]; sensor CA0, peptide 0.1 mg/mL
  Sour: -3.77
[5]; sensor CA0, peptide 1 mg/mL
  Sour: 12.34
[5]; sensor CT0, peptide 0.1 mg/mL
  Salty: -15.97
[5]; sensor CT0, peptide 1 mg/mL
  Salty: 15.30
[5]; sensor GL1, peptide 0.1 mg/mL
  Sweet: 3.50
[5]; sensor GL1, peptide 1 mg/mL
  Sweet: -4.65
[9]
  Average cell viability, BEAS-2B: 101.89
[10]
  Average cell viability, HEK293T: 95.55
[6]
  Average hemolysis: 1.05%

## EPDDPDD [TaPep27]
[7]
  Average cell viability, HPNE: 91.58
[8]
  Average cell viability, HUVEC: 94.52
[5]; peptide 0.1 mg/mL
  Umami: 0.54
[5]; peptide 1 mg/mL
  Umami: -6.01
[5]; sensor C00, peptide 0.1 mg/mL
  Bitter: 7.42
[5]; sensor C00, peptide 1 mg/mL
  Bitter: 3.79
[5]; sensor CA0, peptide 0.1 mg/mL
  Sour: -0.70
[5]; sensor CA0, peptide 1 mg/mL
  Sour: 14.83
[5]; sensor CT0, peptide 0.1 mg/mL
  Salty: -22.39
[5]; sensor CT0, peptide 1 mg/mL
  Salty: 8.93
[5]; sensor GL1, peptide 0.1 mg/mL
  Sweet: 3.39
[5]; sensor GL1, peptide 1 mg/mL
  Sweet: -6.25
[9]
  Average cell viability, BEAS-2B: 105.85
[10]
  Average cell viability, HEK293T: 98.49
[6]
  Average hemolysis: 1.02%

## KGDEESLA
[11]
  taste characteristics: both umami and bitter characteristics

## AGDAW [TaPep30]
[1]
  Average cell viability, HEK293T: 110.47
  Cell viability, HEK293T, Data1: 112.62
  Cell viability, HEK293T, Data2: 114.23
  Cell viability, HEK293T, Data3: 104.57
[2]
  Average cell viability, HPNE: 103.96
  Cell viability, HPNE, Data1: 100.43
  Cell viability, HPNE, Data2: 106.72
  Cell viability, HPNE, Data3: 104.73
[3]
  Average cell viability, BEAS-2B: 116.78
  Cell viability, BEAS-2B, Data1: 115.45
  Cell viability, BEAS-2B, Data2: 115.55
  Cell viability, BEAS-2B, Data3: 119.34
[4]
  Average cell viability, HUVEC: 102.13
  Cell viability, HUVEC, Data1: 114.08
  Cell viability, HUVEC, Data2: 97.39
  Cell viability, HUVEC, Data3: 94.92
[5]; peptide 0.1 mg/mL
  Umami: 1.69
[5]; peptide 1 mg/mL
  Umami: -4.59
[5]; sensor C00, peptide 0.1 mg/mL
  Bitter: 7.53
[5]; sensor C00, peptide 1 mg/mL
  Bitter: 3.18
[5]; sensor CA0, peptide 0.1 mg/mL
  Sour: -3.43
[5]; sensor CA0, peptide 1 mg/mL
  Sour: 12.02
[5]; sensor CT0, peptide 0.1 mg/mL
  Salty: -20.28
[5]; sensor CT0, peptide 1 mg/mL
  Salty: 11.18
[5]; sensor GL1, peptide 0.1 mg/mL
  Sweet: 5.66
[5]; sensor GL1, peptide 1 mg/mL
  Sweet: -6.46
